Test results as given in patent US6548494B1, “Tricyclic inhibitors of poly(ADP-ribose) polymerases” (Agouron Pharmaceuticals, Inc., priority 1999, dated 2003).
Where “and” joins values, the source holds several entries; their conditions need not be identical. Equal entries are not always repeated. Where two headings read alike, the source gives them in different places.

Legend:
[1] = target: purified PARP protein (Homo sapiens, UniProt P09874); test: PARP enzyme inhibition assay; type: biochemical
[2] = test system: A549 cells; test: Cytotoxicity potentiation assay; type: cell-based; settings: test compound 0.4 μM, ratio of IC50 of topotecan alone to IC50 of topotecan with test compound
Procedure: A549 cells (ATCC, Rockville, Md.) were seeded into 96-well cell culture plates (Falcon brand, Fisher Scientific, Pittsburgh, Pa.) 16 to 24 hours before experimental manipulation. Cells were then treated with a test compound (or a combination of test compounds where indicated) each at a concentration of 0.4 μM for either 3 days or 5 days. At the end of treatments, relative cell number was determined either by MTT assay or SRB assay. For the MTT assay, 0.2 μg/μl of MTT (3-(4,5-dimethylthiazol-2-yl)-2,5-diphenyltetrazolium bromide) (Sigma Chemical Co., St. Louis, Mo.) was added to each well of a plate, and the plate was incubated in a cell-culture incubator for 4 hours. Metabolized MTT in each well was solubilized in 150 μl of DMSO (Sigma Chemical Co.) with shaking and quantified with a Wallac 1420 Victor plate reader (EG&G Wallac, Gaithersburg, Md.) at 540 nm. For the SRB assay, cells were fixed with 10% trichloroacetic acid (Sigma Chemical Co) for an hour at 4° C. After extensively washing, fixed cells were stained for 30 minutes with 0.4% sulforhodamine B (SRB, Sigma Chemical Co.) in 1% acetic acid (Sigma Chemical Co). Unbound SRB was washed away with 1% acetic acid. Then the cultures were air-dried, and dye was solubilized with 10 mM unbuffered Tris base (Sigma Chemical Co) with shaking. The bound dye was measured photometrically with the Wallac Victor plate reader at 515 nm. The ratio of the OD (optical density) value of a compound-treated culture to the OD value of a mock-treated culture, expressed in percentage, was used to quantify the cytotoxicity of a compound. […] To quantify the potentiation of the cytotoxicity of topotecan or temozolomide by test compounds, a dimensionless parameter PF50 is used and is defined as the ratio of the IC50 of topotecan or temozolomide alone to the IC50 of topotecan or temozolomide in combination with a test compound. For the compounds of the invention, PF50 values were determined by testing with topotecan.

[3] = 20 nM purified PARP (5 nM for tight-binding inhibitors), 500 μM NAD+, 25° C., several values in one cell = repeat determinations, read-out: Inhibition Constant Ki

Chain of purified PARP protein (P09874 whole entry): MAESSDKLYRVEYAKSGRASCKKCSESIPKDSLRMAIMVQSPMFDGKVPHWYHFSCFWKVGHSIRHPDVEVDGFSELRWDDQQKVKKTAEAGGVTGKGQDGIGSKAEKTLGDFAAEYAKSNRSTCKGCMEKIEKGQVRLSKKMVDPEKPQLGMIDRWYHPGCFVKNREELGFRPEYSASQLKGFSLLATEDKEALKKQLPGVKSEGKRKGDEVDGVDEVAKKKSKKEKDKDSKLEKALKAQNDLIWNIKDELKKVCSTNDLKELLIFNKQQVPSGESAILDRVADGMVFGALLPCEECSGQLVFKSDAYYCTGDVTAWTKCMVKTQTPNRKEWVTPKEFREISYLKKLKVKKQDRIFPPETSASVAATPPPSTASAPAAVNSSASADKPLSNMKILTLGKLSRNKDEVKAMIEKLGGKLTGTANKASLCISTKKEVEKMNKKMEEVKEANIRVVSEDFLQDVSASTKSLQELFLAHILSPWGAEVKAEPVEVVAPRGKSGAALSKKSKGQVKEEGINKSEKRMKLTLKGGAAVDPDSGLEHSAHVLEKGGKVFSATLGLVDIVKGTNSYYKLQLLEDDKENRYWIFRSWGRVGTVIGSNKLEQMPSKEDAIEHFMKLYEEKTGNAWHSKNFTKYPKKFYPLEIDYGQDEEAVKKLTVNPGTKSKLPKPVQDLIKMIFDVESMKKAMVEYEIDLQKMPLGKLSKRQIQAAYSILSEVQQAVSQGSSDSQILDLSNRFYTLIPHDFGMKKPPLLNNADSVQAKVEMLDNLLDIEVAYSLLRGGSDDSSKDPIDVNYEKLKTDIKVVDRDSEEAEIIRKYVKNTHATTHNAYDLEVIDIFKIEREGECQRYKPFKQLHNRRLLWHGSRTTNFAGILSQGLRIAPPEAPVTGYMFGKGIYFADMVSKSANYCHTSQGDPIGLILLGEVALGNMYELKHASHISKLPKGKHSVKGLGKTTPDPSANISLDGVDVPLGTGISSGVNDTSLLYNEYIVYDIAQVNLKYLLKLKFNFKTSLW

Row | Ki [1, 3] | melting point | Ki ([1]; Inhibition Constant Ki (nM)) [nM] | Compound | Cytotoxicity Potentiation PF50 [2]
1 | 4.6 nM |  |  | CCN(CCc1ccccn1)Cc1ccc(-c2nc3cccc4c3n2CCNC4=O)cc1 [Example 203, 1-(4-{[Ethyl-(2-pyridin-2-yl-ethyl)-amino]-methyl}-phenyl)-8,9-dihydro-7H-2,7,9a-triaza-benzo[cd]azulen-6-one] | 2.0
2 | 4.5 nM |  |  | O=C1NCCn2c(-c3ccc(CN4CCCC4)cc3)nc3cc(F)cc1c32 [Example 211, 4-Fluoro-1-(4-pyrrolidin-1-ylmethyl-phenyl)-8,9-dihydro-7H-2,7,9a-triaza-benzo[cd]azulen-6-one] | 2.3
3 | 5.8 nM |  |  | CC(c1ccc(-c2nc3cccc4c3n2CCNC4=O)cc1)N(C)C (centres unmarked) [Example 245, 1-[4-(1-Dimethylamino-ethyl)-phenyl]-8,9-dihydro-7H-2,7,9a-triaza-benzo[cd]azulen-6-one] | 2.1
4 | 8.5 nM |  |  | C[C@H]1Cn2c(-c3ccc(CN4CC=CC4)cc3)nc3cccc(c32)C(=O)N1 [Example 223, (S)-1-[4-(2,5-Dihydro-pyrrol-1-ylmethyl)-phenyl]-8-methyl-8,9-dihydro-7H-2,7,9a-triaza-benzo[cd]azulen-6-one] | 2.1
5 | 4.5 nM |  |  | O=C1NCCn2c(-c3ccc(CN4CC=CC4)cc3)nc3cccc1c32 [Example 171, 1-[4-(2,5-Dihydro-pyrrol-1-ylmethyl)-phenyl]-8,9-dihydro-7H-2,7,9a-triaza-benzo[cd]azulen-6-one] | 2.5
6 | 6 nM |  |  | COc1cccc(CCNCc2ccc(-c3nc4cccc5c4n3CCNC5=O)cc2)c1 [Example 184, 1-(4-{[2-(3-Methoxy-phenyl)-ethylamino]-methyl}-phenyl)-2,7,8,9-tetrahydro-2,7,9a-triaza-benzo[cd]azulen-6-one] | 2.2
7 | 4.1 nM |  |  | O=C1NCCn2c(-c3ccc(CN4CC=CC4)cc3)nc3cc(F)cc1c32 [Example 177, 1-[4-(2,5-Dihydro-pyrrol-1-ylmethyl)-phenyl]-4-fluoro-8,9-dihydro-7H-2,7,9a-triaza-benzo[cd]azulen-6-one] | 2.5
8 | 2.8 nM and 5.2 nM |  |  | O=C1NCCn2c(-c3ccc(CNC4Cc5ccccc5C4)cc3)nc3cccc1c32 [Example 197, 1-[4-(Indan-2-ylaminomethyl)-phenyl]-8,9-dihydro-7H-2,7,9a-triaza-benzo[cd]azulen-6-one] | 2.5
9 | 3.3 nM |  |  | CC(c1ccc(-c2nc3cccc4c3n2CCNC4=O)cc1)N1CCCC1 (centres unmarked) [Example 246, 1-[4-(1-Pyrrolidin-1-yl-ethyl)-phenyl]-8,9-dihydro-7H-2,7,9a-triaza-benzo[cd]azulen-6-one] | 2.3
10 | 4.2 nM |  |  | CN(CCc1cc2ccccc2[nH]1)Cc1ccc(-c2nc3cccc4c3n2CCNC4=O)cc1 [Example 207, 1-[4-({[2-(1H-Indol-2-yl)-ethyl]-methyl-amino}-methyl)-phenyl]-8,9-dihydro-7H-2,7,9a-triaza-benzo[cd]azulen-6-one] | 2.4
11 | 116 nM | 311 to 316 °C (dec.) |  | CN1CCN(C(=O)c2nc3cccc4c3n2CCNC4=O)CC1 [Example 115, 1-(4-Methyl-piperazine-1-carbonyl)-8,9-dihydro-7H-2,7,9a-triaza-benzo[cd]azulen-6-one] | 
12 |  | 178 to 180 °C | 380 | O=C1NCCn2cc(C(O)c3ccccc3)c3cccc1c32 (centres unmarked) [Example 166, 7-(1-Hydroxy-1-phenyl-methyl)-3,4-dihydro-2H-[1,4]diazepino[6,7,1-hi]indol-1-one] | 
13 | 5.5 nM | 281 to 288 °C (dec.) |  | N#Cc1ccc(Oc2ccc(-c3nc4cccc5c4n3CCNC5=O)cn2)cc1 [Example 109, 4-[5-(6-Oxo-6,7,8,9-tetrahydro-2,7,9a-triaza-benzo[cd]azulen-1-yl)-pyridin-2-yloxy]-benzonitrile] | 
14 | 6.9 nM | > 260 °C (dec.) |  | CC(C)N1CCCCC1c1ccc(-c2nc3cccc4c3n2CCNC4=O)cc1 (centres unmarked) [Example 151] | 
15 |  | 263 to 265 °C | 38 | O=C1NCCn2cc(/C(=N/O)c3ccccc3)c3cccc1c32 [Example 168, 7-(1-Hydroxyimino-1-phenyl-methyl)-3,4-dihydro-2H-[1,4]diazepino[6,7,1-hi]indol-1-one] | 

Second part, the compound before the results:

Row | Compound | Ki [1, 3] | melting point | Ki ([1]; Inhibition Constant Ki (nM)) [nM] | Cytotoxicity Potentiation PF50 [2]
16 | CN(C)Cc1ccc(-c2cc3cccc4c3n2CCNC4=O)cc1 [Example 82, 6-(4-Dimethylaminomethyl-phenyl)-3,4-dihydro-2H-[1,4]diazepino[6,7,1-hi]indol-1-one] | 6.2 nM and 6.6 nM |  |  | 1.9
17 | O=C1NCCn2c(-c3ccc4ccccc4c3)nc3cccc1c32 [Example 11, 1-Naphthalen-2-yl-8,9-dihydro-7H-2,7,9a-triaza-benzo[cd]azulen-6-one] | 5.6 nM |  |  | 2.1
18 | O=C1NCCn2c(-c3cccc4ccccc34)nc3cccc1c32 [Example 9, 1-Naphthalen-1-yl-8,9-dihydro-7H-2,7,9a-triaza-benzo[cd]azulen-6-one] |  |  |  | 1.4
19 | O=C1NCCn2c(-c3cccnc3)nc3cccc1c32 [Example 7, 1-Pyridin-3-yl-8,9-dihydro-7H-2,7,9a-triaza-benzo[cd]azulen-6-one] | 5.1 nM |  |  | 1.4
20 | O=C1NCCn2c(-c3ccc(F)cc3)cc3cccc1c32 [Example 37] |  |  |  | 1.8
21 | O=C1NCCn2c(-c3ccc(F)cc3)c(/C=N/O)c3cccc1c32 [Example 90, 6-(4-Fluoro-phenyl)-1-oxo-1,2,3,4-tetrahydro-[1,4]diazepino[6,7,1-hi]indole-7-carbaldehyde oxime] |  |  |  | 1.2
22 | O=C1NCCn2c(-c3ccc(Cl)cc3)c(/C=N/O)c3cccc1c32 [Example 39, 6-(4-Chloro-phenyl)-1-oxo-1,2,3,4-tetrahydro-[1,4]diazepino[6,7,1-hi]indole-7-carboxaldehyde Oxime] |  |  |  | 1
23 | Cc1c(-c2ccc(F)cc2)n2c3c(cccc13)C(=O)NCC2 [Example 50, 6-(4-Fluoro-phenyl)-7-methyl-3,4-dihydro-2H-[1,4]diazepino[6,7,1-hi]indol-1-one] |  |  |  | 1.1
24 | N#Cc1c(-c2ccc(F)cc2)n2c3c(cccc13)C(=O)NCC2 [Example 91, 6-(4-Fluoro-phenyl)-1-oxo-1,2,3,4-tetrahydro-[1,4]diazepino[6,7,1-hi]indole-7-carbonitrile] | 54 nM | 248 to 250 °C |  | 
25 | O=C1NCCn2c(-c3ccc(CO)cc3)nc3cc(F)cc1c32 [Example 97, 4-Fluoro-1-(hydroxymethyl-phenyl)-8,9-dihydro-7H-2,7,9a-triaza-benzo[cd]azulen-6-one] | 1.6 nM | 273 to 275 °C |  | 
26 | O=C1NCCn2c(CCc3ccccc3)cc3cccc1c32 [Example 36, 6-Phenethyl-3,4-dihydro-2H-[-1,4]diazepino[6,7,1-hi]indol-1-one] |  | 133 to 135 °C | 27 | 
27 | CCOC(=O)c1nc2cccc3c2n1CCNC3=O [Example 74, 6-Oxo-6,7,8,9-tetrahydro-2,7,9a-triaza-benzo[cd]azulen-1-carboxylic Acid Ethyl Ester] | 33 nM | 237 to 239 °C (dec.) |  | 
28 | O=C1NCCn2c(-c3ccccn3)cc3cccc1c32 [Example 40, 6-Pyridin-2-yl-3,4-dihydro-2H-[1,4]diazepino[6,7,1-hi]indol-1-one] | 68 nM | 173 to 175 °C |  | 
29 | COc1ccc(-c2cc3cccc4c3n2CCNC4=O)cc1 [Example 35, 6-(4-Methoxyphenyl)-3,4-dihydro-2H-[1,4]diazepino[6,7,1-hi]indol-1-one] | 8.2 nM | 193 to 195 °C |  | 
30 | O=C1NCCn2cc(/C=N/O)c3cccc1c32 [Example 46, 1-Oxo-1,2,3,4-tetrahydro-[1,4]diazepino[6,7]-hi]indole-7-carbaldehyde Oxime] |  |  |  | 1.3
31 | O=C1NCCn2c(-c3ccccc3)nc3cccc1c32 [Example 1, 1-Phenyl-8,9-dihydro-7H-2,7,9a-triaza-benzo[cd]azulen-6-one] |  |  |  | 1.5
32 | N#CCNCc1ccc(-c2nc3cccc4c3n2CCNC4=O)cc1 [Example 102, [4-(6-Oxo-6,7,8,9-tetrahydro-2,7,9a-triaza-benzo[cd]azulen-1-yl)-benzylamino]-acetonitrile] | 5.6 nM | 198 to 202 °C (dec.) |  | 
33 | CNCc1cccc(-c2nc3cc(F)cc4c3n2CCNC4=O)c1 [Example 72, 1-(3-Methylaminomethyl-phenyl)-4-fluoro-8,9-dihydro-7H-2,7,9a-triaza-benzo[cd]azulen-6-one] | 3.5 nM | 196 to 198 °C |  | 
